These results are taken from publication PMC11761228, “Cinnamic Acid Compounds (p-Coumaric, Ferulic, and p-Methoxycinnamic Acid) as Effective Antibacterial Agents Against Colistin-Resistant Acinetobacter baumannii” (Antibiotics, 2025).

As usually defined, the MIC is the lowest concentration that inhibits growth of the organism.

Converted amounts (≈) assume the structure as drawn.

In assay [1] the test system is COLR-Ab isolates. Description: BD Phoenix100 automated antibiotic susceptibility testing. The format is cell-based, Acinetobacter baumannii. Set-up: key to Susceptibility category: Resistant; Intermediate; Susceptible. The settings on record: for MIC: Acinetobacter baumannii; for Susceptibility category: CLSI criteria. How it is done:
Five COLR-Ab strains isolated from various clinical specimens were obtained between 2016 and 2017 from the Microbiology Department of the Central Laboratory of Akdeniz University Hospital, Antalya, Turkey. All isolates were isolated from tracheal samples obtained from patients hospitalized in the intensive care unit. The stock solutions of A. baumannii strains were cultivated in blood agar (Becton Dickinson, Franklin Lakes, NJ, USA) at 35 ± 2 °C for 18–24 h. Identification of the colonies was confirmed using Matrix-Assisted Laser Desorption/Ionization Time-of-Flight (MALDI-TOF) mass spectroscopy (Bruker Daltonics, Bremen, Germany). […] The automated system was evaluated according to the criteria of the CLSI. […] E. coli NCTC 13846 COL was used as a quality control strain in broth dilution method to verify the MIC values. The isolates were stored at −80 °C until use and sub-cultured on blood agar for in vitro testing.

In another assay the test system is A. baumannii isolates. As to conditions: A. baumannii isolates, combination with COL; cited from earlier work.
The test system of assay [2] is COLR-Ab isolates. In words: Colistin broth disk elution method. The format is cell-based, Acinetobacter baumannii. Also on record: key to Susceptibility category: Resistant; Intermediate; Susceptible. How it is done:
(§1) Five COLR-Ab strains isolated from various clinical specimens were obtained between 2016 and 2017 from the Microbiology Department of the Central Laboratory of Akdeniz University Hospital, Antalya, Turkey. All isolates were isolated from tracheal samples obtained from patients hospitalized in the intensive care unit. The stock solutions of A. baumannii strains were cultivated in blood agar (Becton Dickinson, Franklin Lakes, NJ, USA) at 35 ± 2 °C for 18–24 h. Identification of the colonies was confirmed using Matrix-Assisted Laser Desorption/Ionization Time-of-Flight (MALDI-TOF) mass spectroscopy (Bruker Daltonics, Bremen, Germany). […] The automated system was evaluated according to the criteria of the CLSI. The colistin broth disk elution method was used to test COL sensitivity, and all five isolates selected for the study were resistant to COL. E. coli NCTC 13846 COL was used as a quality control strain in broth dilution method to verify the MIC values. The isolates were stored at −80 °C until use and sub-cultured on blood agar for in vitro testing.

The subject of assay [3] is Escherichia coli NCTC 13846. Description: Broth microdilution MIC, quality control strain. It is filed as cell-based. As to conditions: E. coli NCTC 13846 quality control strain. How it is done:
as §1
The broth microdilution method, as recommended by the CLSI, was used to determine the MIC values of COL, p-CA, FA, and p-MCA [46]. […] The MIC values were calculated by comparing the growth densities in the antibiotic-containing wells to those in the control wells used in each test set. […]
On the technique in general: In broth dilution the organism is exposed to a series of concentrations in liquid medium.

Assay [4] relates to biofilm formation of COLR-Ab isolates. In words: Antibiofilm activity, microtiter plate-based crystal violet technique. The settings on record: all COL doses except 1 μg/mL for COLR-Ab4; COLR-Ab1, 3, 4, 5. It is filed as cell-based, Acinetobacter baumannii. How it is done:
Following the incubation period, the microtiter plates were gently washed three times with PBS. Subsequently, 200 µL of methanol (99%) was added to each well and left for 15 min. The methanol was then removed from the wells and the plate was left to dry for approximately 30 min, thus completing the fixation process. Then, 200 µL of 0.1% CV solution was added to each well and incubated for 20 min at room temperature. The plates were washed three times with PBS in order to remove the excess stain, and then 150 μL of 95% ethanol was added to the wells and incubated for 20 min. The optical density of the CV-stained biofilm was measured at a wavelength of 575 nm using a Thermo Labsystem Multiscan Spectrum microtiter plate reader (Thermolabsystem, Chantilly, VA, USA). Each experiment was conducted in triplicate.
In order to evaluate the antibiofilm activity of COL, p-CA, FA, and p-MCA, a 96-well microtiter plate-based CV test was carried out, with minor modifications to the methods previously described by Kırmusaoglu (2019) and Haney et al. (2021). Briefly, bacteria were inoculated into MHB medium containing 0.2% glucose and incubated at 37 °C for 16–20 h. The bacterial suspension, adjusted to 0.5 McFarland using the same medium, was prepared to a final concentration of 5 × 10^5 CFU/mL and inoculated into 96-well flat-bottom microtitre plates. […] Wells containing only medium were used as negative controls (MHB), and wells containing only medium and bacteria were used as growth controls. The plates were then incubated overnight at 35 ± 2 °C in a normal atmosphere. Following incubation, CV staining procedures were carried out in a similar manner to Section 4.4.
The antibiofilm index was calculated using the following formula:% Biofilm Mass = (100 × Sample OD575/Growth Control OD575)

Assay [5] has as its system COLR-Ab isolates. In words: Broth microdilution MIC determination (CLSI). The format is cell-based, Acinetobacter baumannii. How it is done: The broth microdilution method, as recommended by the CLSI, was used to determine the MIC values of COL, p-CA, FA, and p-MCA [46]. The serial two-fold dilutions of antimicrobial agents were prepared using 96-well microplates with cation-adjusted Mueller-Hinton Broth (MHB) (CAMHB, Merck KGaA, Darmstadt, Germany). Firstly, an initial concentration of 8192 µg/mL was chosen to determine the MIC values of all compounds against COLR-Ab isolates. […] The bacterial suspension was adjusted to the 0.5 McFarland standard and added to each well (final bacterial concentration: 5 × 10^5 colony forming units [CFU]/mL). Additionally, the microdilution plates included controls for bacterial growth (CAMHB + bacteria) and medium sterility (CAMHB). Microdilution plates were incubated at 35 ± 2 °C for 18–24 h. The MIC values were calculated by comparing the growth densities in the antibiotic-containing wells to those in the control wells used in each test set. Each experiment was conducted in triplicate.

Where [6] appears, read: COLR-Ab1, BD Phoenix 100 system.
The mark [7] stands for this setting: COLR-Ab2, BD Phoenix 100 system.
The mark [8] stands for this setting: COLR-Ab3, BD Phoenix 100 system.
[9] abbreviates: COLR-Ab4, BD Phoenix 100 system.
Setting [10] is: COLR-Ab5, BD Phoenix 100 system.
Where [11] appears, read: COLR-Ab1, colistin broth disk elution.
[12] abbreviates: COLR-Ab2, colistin broth disk elution.
[13] abbreviates: COLR-Ab3, colistin broth disk elution.
[14] abbreviates: COLR-Ab4, colistin broth disk elution.
[15] abbreviates: COLR-Ab5, colistin broth disk elution.

On to `NCC[C@H](O)C(=O)N[C@@H]1C[C@H](N)[C@@H](O[C@H]2O[C@H](CN)[C@@H](O)[C@H](O)[C@H]2O)[C@H](O)[C@H]1O[C@H]1O[C@H](CO)[C@@H](O)[C@H](N)[C@H]1O` [AMK, Amikacin], for which the MIC in the assay with COLR-Ab isolates [1] (setting [6]) was ≤ 4 µg/mL; in the assay on COLR-Ab isolates [1] (setting [7]), > 16 µg/mL; with COLR-Ab isolates [1] (setting [8]), > 16 µg/mL; with COLR-Ab isolates [1] (setting [9]), > 16 µg/mL; against COLR-Ab isolates [1] (setting [10]), > 16 µg/mL. Further, the Susceptibility category result in the assay with COLR-Ab isolates [1] (setting [6]) is reported as “S”; in the assay with COLR-Ab isolates [1] (setting [7]) it was “R”; in the assay on COLR-Ab isolates [1] (setting [8]), “R”; with COLR-Ab isolates [1] (setting [9]), “R”; in the assay on COLR-Ab isolates [1] (setting [10]), “R”.
In the case of `CNC(C)C1CCC(N)C(OC2C(N)CC(N)C(OC3OCC(C)(O)C(NC)C3O)C2O)O1` (stereo not shown) [GEN, Gentamicin], the MIC in the assay on COLR-Ab isolates [1] (setting [6]) was ≤ 1 µg/mL; with COLR-Ab isolates [1] (setting [7]), > 4 µg/mL; with COLR-Ab isolates [1] (setting [8]), > 4 µg/mL; with COLR-Ab isolates [1] (setting [9]) it was > 4 µg/mL; in the assay on COLR-Ab isolates [1] (setting [10]) it was > 4 µg/mL. Further, the Susceptibility category result in the assay with COLR-Ab isolates [1] (setting [6]) is on record as “S”; with COLR-Ab isolates [1] (setting [7]) it was “R”; in the assay on COLR-Ab isolates [1] (setting [8]) it was “R”; with COLR-Ab isolates [1] (setting [9]), “R”; in the assay on COLR-Ab isolates [1] (setting [10]), “R”.
Consider `C[C@@H](O)[C@H]1C(=O)N2C(C(=O)O)=C(SCCN=CN)C[C@H]12` [IPM, Imipenem], for which the MIC against COLR-Ab isolates [1] (setting [6]) is ≤ 0.25 µg/mL; with COLR-Ab isolates [1] (setting [7]), > 8 µg/mL; against COLR-Ab isolates [1] (setting [8]) it was 4 µg/mL (≈ 13.4 µM); with COLR-Ab isolates [1] (setting [9]), > 8 µg/mL; in the assay on COLR-Ab isolates [1] (setting [10]), > 8 µg/mL. The Susceptibility category entry with COLR-Ab isolates [1] (setting [6]) is “S”; in the assay on COLR-Ab isolates [1] (setting [7]) it was “R”; in the assay with COLR-Ab isolates [1] (setting [8]), “I”; in the assay with COLR-Ab isolates [1] (setting [9]), “R”; with COLR-Ab isolates [1] (setting [10]), “R”.
As for `C[C@@H](O)[C@H]1C(=O)N2C(C(=O)O)=C(S[C@@H]3CN[C@H](C(=O)N(C)C)C3)[C@H](C)[C@H]12` [MEM, Meropenem], the MIC with COLR-Ab isolates [1] (setting [6]) is ≤ 0.125 µg/mL; with COLR-Ab isolates [1] (setting [7]), > 8 µg/mL; against COLR-Ab isolates [1] (setting [8]), > 8 µg/mL; with COLR-Ab isolates [1] (setting [9]), > 8 µg/mL; against COLR-Ab isolates [1] (setting [10]), > 8 µg/mL. The Susceptibility category entry is “S” in the assay on COLR-Ab isolates [1] (setting [6]); “R” in the assay with COLR-Ab isolates [1] (setting [7]); “R” in the assay on COLR-Ab isolates [1] (setting [8]); “R” with COLR-Ab isolates [1] (setting [9]); “R” in the assay with COLR-Ab isolates [1] (setting [10]).
For the compound `CCN[C@@H]1C[C@H](N)[C@@H](O[C@H]2OC(CN)=CC[C@H]2N)[C@H](O)[C@H]1O[C@H]1OC[C@](C)(O)[C@H](NC)[C@H]1O` [NET, Netilmicin], the MIC in the assay on COLR-Ab isolates [1] (setting [6]) was 1 µg/mL (≈ 2.1 µM); against COLR-Ab isolates [1] (setting [7]) it was > 4 µg/mL; against COLR-Ab isolates [1] (setting [8]), > 4 µg/mL; in the assay with COLR-Ab isolates [1] (setting [9]) it was > 4 µg/mL; in the assay on COLR-Ab isolates [1] (setting [10]), > 4 µg/mL. In addition, the Susceptibility category entry in the assay on COLR-Ab isolates [1] (setting [6]) is “S”; with COLR-Ab isolates [1] (setting [7]), “R”; in the assay with COLR-Ab isolates [1] (setting [8]) it was “R”; in the assay on COLR-Ab isolates [1] (setting [9]), “R”; in the assay on COLR-Ab isolates [1] (setting [10]), “R”.
In the case of `O=C(O)/C=C/c1ccc(O)c(O)c1` [caffeic acid], the “Combination effect with COL in words” value with A. baumannii isolates was “Synergistic activity”.
For `O=C(O)c1cc(O)c(O)c(O)c1` [gallic acid], in the assay with A. baumannii isolates, the “Combination effect with COL in words” value was “Synergistic activity”.
For the compound `O=C(O)c1ccc(O)c(O)c1` [protocatechuic acid], the “Combination effect with COL in words” value in the assay with A. baumannii isolates is recorded as “Synergistic activity”.
For colistin, the MIC against COLR-Ab isolates [2] (setting [11]) was > 4 µg/mL; against COLR-Ab isolates [2] (setting [12]), > 4 µg/mL; in the assay on COLR-Ab isolates [2] (setting [13]) it was > 4 µg/mL; against COLR-Ab isolates [2] (setting [14]), > 4 µg/mL; against COLR-Ab isolates [2] (setting [15]), > 4 µg/mL; in assay [3], 4 µg/mL. Besides, the MIC is 32 µg/mL in the assay with COLR-Ab isolates [5] (COLR-Ab1); 64 µg/mL with COLR-Ab isolates [5] (COLR-Ab2); 64 µg/mL against COLR-Ab isolates [5] (COLR-Ab3); 128 µg/mL against COLR-Ab isolates [5] (COLR-Ab4); 64 µg/mL against COLR-Ab isolates [5] (COLR-Ab5). The Susceptibility category result with COLR-Ab isolates [2] (setting [11]), in the assay on COLR-Ab isolates [2] (setting [12]), in the assay on COLR-Ab isolates [2] (setting [13]), in the assay on COLR-Ab isolates [2] (setting [14]) and with COLR-Ab isolates [2] (setting [15]) was “R” each time. In addition, the “Inhibition of biofilm formation” value in assay [4] is 19.7–75.2%.
